According to patent US20050272682A1, “SiRNA targeting PI3K signal transduction pathway and siRNA-based therapy” (priority 2004, published 2005):
Entries after “also recorded” stand apart in the source; their conditions may differ.

Tests used:
KM12C cells [1] = test: MTT assay, KM12C cells; assay type: cell-based, human; conditions: KM12C cells at 96, 120 and 144 h after transfection
Method: (§1) Cells were transfected with pik3r1, Akt1 or scrambled siRNA at a density of 2×10^5 cells/well in 12 well plates. After 24 h, adherent cells were detached by rapid trypsinization, counted in a Hausser chamber and replated into 96 well plates at a concentration of 2×10^3 cells/well. […]

KM12C cells [2] = test: Ribonuclease protection assay, KM12C cells; assay type: cell-based, human
Method: Cells were treated with pik3r1 and Akt1 siRNA and harvested 72 h later. RNA was isolated from cells using TRIzol® RNA reagent according to the manufacturer's protocol. A multiprobe template set (hAPO3c), which assesses expression of caspase 8, FASL, FAS, DR3, Decoy receptor 1 (DcR1), DR4, DR5, TRAIL, TNFR p55, TRADD and the housekeeping genes GAPDH and L32, as well as the Human Apoptosis hAPO-2b and hAPO-2c Template Set were labeled using Ambion T7 MAXIscript. The Ambion RPA III kit was then utilized to hybridize the RNA from the samples with the labeled probes. After RNAse treatment of hybridized samples, protected products were resolved on a 5% acrylamide gel, adsorbed onto filter paper, and exposed to Kodak BioMax MR film in a cassette at −70° C. and analyzed as previously described (Wang, et al., 2000).

KM20 cells [3] = test: MTT assay, KM20 cells; assay type: cell-based, human; conditions: KM20 cells at 96, 120 and 144 h after transfection
Method: as §1

KM12C cells [4] = test: Western blot of apoptosis-related proteins, KM12C cells; assay type: cell-based, human
Method: (§2) Cell culture transfection was carried out with siPORT™ Amine transfection agent according to the manufacturer's protocol. Three days after transfection with the siRNA duplexes, cells were harvested and protein expression was assessed by Western blot.
(§3) Western immunoblot analyses were performed as described previously (Wang, et al., 2000). Cells were lysed with TNN buffer at 4° C. for 30 min. Lysates were clarified by centrifugation (10,000×g for 30 min at 4° C.) and protein concentrations determined using the method of Bradford (1976). Briefly, total protein (100 μg) was resolved on a 10% polyacrylamide gel and transferred to Immobilon-P […] membranes. Filters were incubated overnight at 4° C. in blotting solution (Tris-buffered saline containing 5% nonfat dried milk and 0.1% Tween 20), followed by a 1-h incubation with primary antibodies. Filters were washed three times in a blocking solution and incubated with horseradish peroxidase-conjugated secondary antibodies for 1 h. After three additional washes, the immune complexes were visualized by ECL detection.

KM20 cells [5] = test: Western blot of apoptosis-related proteins, KM20 cells; assay type: cell-based, human
Method: as §2, §3

KM20 tumor xenografts = test: KM20 tumor xenograft growth in nude mice, intratumoral siRNA with electrotherapy; assay type: in vivo; conditions: 5 μg siRNA intratumoral + electric pulses every 3rd day; by day 12, persisted for the study period (30 days)
Method: For in vivo studies, 4-6 week old male nude^nu/nu mice were obtained from Harlan Sprague Dawley (Indianapolis, Ind.) and housed in clean pathogen-free rooms in an environment with controlled temperature (22° C.), humidity, and a 12 h light/dark cycle. The mice were fed standard chow (Formula Chow 5008; Purina Mills, St. Louis, Mo.) and tap water ad libitum and allowed to acclimate for one week.
Prior to tumor injection, KM20 cells were harvested, washed twice in ice-cold serum free minimum Eagle's medium, counted for viable cells by trypan blue exclusion. The cells were resuspended in the same medium and used to inject mice subcutaneously (sc) with 2×10^6 cells in a volume of 0.2 ml. After tumors reached ˜60 mm^2, mice were sacrificed and 9 mm^2 tumor xenografts were transferred to the left flank of athymic mice. After tumor xenografts reached ˜60 mm^2 (day 10), mice were randomly divided into three groups (n=5 mice/group): the first group of mice was treated with scrambled siRNA, the second and third groups were treated with siRNA (5 μg diluted in 100 μl of serum free medium) directed against pik3r1 or Akt1, respectively, as intratumoral injections. […] Tumor growth was assessed every third day from day 10 onward by measuring the two greatest perpendicular tumor dimensions using vernier calipers (Mitutozo, Tokyo, Japan) (Wang, et al., 2002). […]

KM20 cells [6] = test: DNA fragmentation assay (Cell Death Detection ELISA), KM20 cells; assay type: cell-based, human; conditions: KM20 cells
Method: Cells were transfected with pik3r1, Akt1 or scrambled siRNA. After 48 h, adherent cells were detached by rapid trypsinization, counted in a Hausser chamber and seeded at a density of 2×10^3 cells per well in 96-well flat-bottom microtiter plates and incubated in 250 μl of growth medium for 24 h at 37° C. Media were removed and either new complete media or TRAIL (100 ng/mL) was added in a final volume of 200 μL and allowed to grow for 24 h at 37° C. After treatment, DNA fragmentation was evaluated by examination of cytoplasmic histone-associated DNA fragments (mono- and oligonucleosomes) using a Cell Death Detection ELISA^Plus kit (Roche Molecular Biochemicals) according to the manufacturer's instructions and as previously described (Wang. et al., 2002). The experiments were repeated on at least 3 separate occasions.

[7] = siRNA in combination with TRAIL

pik3r1 siRNA: siRNA to human pik3r1 (p85α) used in KM20/KM12C cells and xenografts; SEQ ID NO:24 vs. SEQ ID NO:25 (chain 1 GAAUAUACCCGCACAUCCCUU; chain 2 GGGAUGUGCGGGUAUAUUCUU; listed as RNA, chemistry not given here)
cell viability (MTT) (KM12C cells [1]): significantly decreased
Bcl-w mRNA expression (KM12C cells [2]): decreased
Bcl-x (L, S) mRNA expression (KM12C cells [2]): decreased
cell viability (MTT) (KM20 cells [3]): significantly decreased
Bax protein expression (KM12C cells [4]): increased
Bcl-2 protein expression (KM12C cells [4]): decreased
Bcl-xL protein expression (KM12C cells [4]): decreased
caspase-9 activation (35 kDa large active subunit) (KM12C cells [4]): activation
cytochrome C release (KM12C cells [4]): induced
Bax protein expression (KM20 cells [5]): increased
Bcl-2 protein expression (KM20 cells [5]): decreased
Bcl-xL protein expression (KM20 cells [5]): decreased
caspase-9 activation (35 kDa large active subunit) (KM20 cells [5]): activation
cytochrome C release (KM20 cells [5]): induced
protein expression for DR4/DR5 (KM20 cells [5]): increased
BID cleavage (KM20 cells [5]; [7]): BID cleavage
caspase-8 activation (KM20 cells [5]; [7]): activated
cleavage of pro-caspase-3 (KM20 cells [5]; siRNA in combination with TRAIL compared with TRAIL alone): enhanced
KM20 tumor growth (KM20 tumor xenografts): Significant inhibitory effects
DNA fragmentation (apoptosis) (KM20 cells [6]; siRNA alone compared to scrambled sequence): increase; also recorded: induced
TRAIL-mediated apoptosis (DNA fragmentation) (KM20 cells [6]; siRNA in combination with TRAIL 100 ng/mL): significant augmentation
